Data on 20 compounds can be found in patent US5969115A, “Bisazo dyes and their preparation and use” (Ilford Imaging Switzerland GMBH, priority 1997, dated 1999).

Common to all, as to type: physicochemical
Data set [1] in a line: Absorption maximum in water. An excerpt: The absorption maxima and the results of the tests (B) to (D) are listed in Table 6 for the dyes of the invention and in Table 7 for the dyes that are state of the art.
The nature of data set [2]: Color co-ordinates (L*a*b*) of printed samples. Particulars: for neutral black (color co-ordinates): in words. As for the experimental part:
(§1) The present invention, as far as it relates to inks, is further illustrated by the following examples using dyes according to our invention described in Tables 1 and 2 and dyes representing the state of the art described in Tables 3 and 4. 100 g of each ink were prepared by heating the necessary amount of dye (3-7 g), glycerol (5 g), tetraethylenglycol (1.1 g). and a biocide solution (Promexal X50, available from Zeneca, Manchester, England) (1.2 g) together with water at a temperature of 50° C. under stirring for one hour. The resulting solution was cooled down to 20° C., pH was adjusted to 7.5 and passed through a Millipore® filter of 0.5 μm pore diameter. The dye quantity was adjusted in a way that the density of the printed images was the same for all dyes.
(§2) 30 g of gelatin with a high isoelectric point (type St 70,810, available from Deutsche Gelatinefabriken, Eberbach, Germany) were dissolved in 360 ml of deionised water. 1 g of a surfactant (Olin 10G, available from Olin Corporation, Norwalk, USA) were added to this solution. Immediately before coating 6.6 g of a solution of 2-(4-dimethyl-carbamoyl-pyridino)-ethanesulfonate (3%) were added and pH was adjusted to 6.5. 100 g/m^2 of this solution was then coated onto a resin coated paper support using a bar coater. The recording medium prepared in this way was dried for 12 hours.
(§3) The inks were then jetted onto this recording medium with an HP560 ink jet printer from Hewlett-Packard. The properties of the printed samples were evaluated later on.
L*a*b*-values were measured on printed samples using a Gretag SPM 100 spectrometer, available from Gretag AG, Regensdorf, Switzerland.
Black dyes show a neutral hue if the values of a* and b*out of the L*a*b* color co-ordinates are zero.

Data set [3] can be described thus: Light fastness of printed samples (density loss after xenon lamp irradiation). The following applies: for Density loss in %: xenon lamp, total illumination 20 kJoule/cm^2; for light fastness: printed samples, in words. The method, then: as §1, §2, §3
The printed samples were irradiated in an Atlas Ci35A Weather-O-Meter® with a r 6500 W Xenon lamp until a total illumination of 20 kJoule/cm^2 was reached. The density loss was measured with an X-Rite® densitometer. It is expressed as % loss of initial density.

As for `O=S(=O)(O)CCNc1ccc2cc(S(=O)(=O)O)c(N=Nc3ccc(N=Nc4cccc(CO)c4)c4ccc(S(=O)(=O)O)cc34)c(O)c2c1` [Compound 1], in data set [1] (Table 6), the “HD max in water” value stood at 582 nm. Besides, in data set [1] (second value of the cell, Table 6), the “HD max in water (second maximum)” value is 440 nm.
On to `O=C(O)c1cccc(N=Nc2ccc(N=Nc3c(S(=O)(=O)O)cc4ccc(NCCS(=O)(=O)O)cc4c3O)c3cc(S(=O)(=O)O)ccc23)c1` [Compound 2], for which, in data set [1] (Table 6), the “HD max in water” value stood at 573 nm. Besides, in data set [2] (Table 6), the “L*a*b*-value: L*” value came to 2.1, the “L*a*b*-value: a*” value is on record as 2.0 and the “L*a*b*-value: b*” value was found to be 0.3. For the same compound, the “Density loss in %” value in data set [3] (Table 6) was 0%.
Regarding `O=S(=O)(O)CCNc1ccc2cc(S(=O)(=O)O)c(N=Nc3ccc(N=Nc4ccc(S(=O)(=O)O)cc4)c4cc(S(=O)(=O)O)ccc34)c(O)c2c1` [Compound 4], the “HD max in water” value in data set [1] (Table 6) stood at 577 nm. For the same compound, in data set [2] (Table 6), the “L*a*b*-value: L*” value was determined as 8.9, the “L*a*b*-value: a*” value amounted to 14.4 and the “L*a*b*-value: b*” value is reported as -7.5. Also, the “Density loss in %” value in data set [3] (Table 6) was 7%.
For the compound `O=S(=O)(O)CCNc1ccc2cc(S(=O)(=O)O)c(N=Nc3ccc(N=Nc4cccc(S(=O)(=O)O)c4)c4cc(S(=O)(=O)O)ccc34)c(O)c2c1` [Compound 6], the “HD max in water” value in data set [1] (Table 6) worked out at 573 nm. Moreover, in data set [2] (Table 6), the “L*a*b*-value: L*” value came out at 7.5, the “L*a*b*-value: a*” value is reported as 14.6 and the “L*a*b*-value: b*” value was -6.4. Moreover, in data set [3] (Table 6), the “Density loss in %” value is reported as 8%.
Take `O=C(O)Cc1ccc(N=Nc2ccc(N=Nc3c(S(=O)(=O)O)cc4ccc(NCCS(=O)(=O)O)cc4c3O)c3cc(S(=O)(=O)O)ccc23)cc1` [Compound 7]: the “HD max in water” value in data set [1] (Table 6) is reported as 576 nm. For the same compound, in data set [2] (Table 6), the “L*a*b*-value: L*” value was determined as 15.5, the “L*a*b*-value: a*” value was found to be 5.2 and the “L*a*b*-value: b*” value is listed as -5.9. Also, the “neutral black (color co-ordinates)” value in data set [2] is “neutral blacks”. The light fastness result in data set [3] is recorded as “excellent light fastness”. The “Density loss in %” value in data set [3] (Table 6) is given as 1%.
On to `O=S(=O)(O)CCNc1ccc2cc(S(=O)(=O)O)c(N=Nc3ccc(N=Nc4ccc(CS(=O)(=O)O)cc4)c4cc(S(=O)(=O)O)ccc34)c(O)c2c1` [Compound 9], for which the “HD max in water” value in data set [1] (Table 6) is on record as 575 nm. Further, in data set [2] (Table 6), the “L*a*b*-value: L*” value amounted to 22.9, the “L*a*b*-value: a*” value is on record as 11.0 and the “L*a*b*-value: b*” value is -5.2. Further, the “Density loss in %” value in data set [3] (Table 6) turned out to be 14%.
In the case of `O=P(O)(O)Cc1ccc(N=Nc2ccc(N=Nc3c(S(=O)(=O)O)cc4ccc(NCCS(=O)(=O)O)cc4c3O)c3cc(S(=O)(=O)O)ccc23)cc1` [Compound 10], the “HD max in water” value in data set [1] (Table 6) stood at 578 nm. In addition, in data set [2] (Table 6), the “L*a*b*-value: L*” value came to 2.0, the “L*a*b*-value: a*” value was found to be 1.5 and the “L*a*b*-value: b*” value was 0.1. In addition, the “Density loss in %” value in data set [3] (Table 6) is reported as 13%.
As for `O=S(=O)(O)CCNc1ccc2cc(S(=O)(=O)O)c(N=Nc3ccc(N=Nc4ccc(CCO)cc4)c4ccc(S(=O)(=O)O)cc34)c(O)c2c1` [Compound 11], in data set [1] (Table 6), the “HD max in water” value was 577 nm. Besides, in data set [2] (Table 6), the “L*a*b*-value: L*” value came to 18.3, the “L*a*b*-value: a*” value is reported as 4.2 and the “L*a*b*-value: b*” value was -3.1. Also, the “Density loss in %” value in data set [3] (Table 6) turned out to be 11%.
Take `O=C(O)CCc1ccc(N=Nc2ccc(N=Nc3c(S(=O)(=O)O)cc4ccc(NCCS(=O)(=O)O)cc4c3O)c3cc(S(=O)(=O)O)ccc23)cc1` [Compound 12]: the “HD max in water” value in data set [1] (Table 6) worked out at 576 nm. Besides, in data set [2] (Table 6), the “L*a*b*-value: L*” value is on record as 12.1, the “L*a*b*-value: a*” value is listed as 3.8 and the “L*a*b*-value: b*” value was -3.1. Further, in data set [2], the “neutral black (color co-ordinates)” value was “neutral blacks”. In addition, in data set [3], the light fastness entry is reported as “excellent light fastness”. The “Density loss in %” value in data set [3] (Table 6) is on record as 4%.
For `O=C(O)CCc1cccc(N=Nc2ccc(N=Nc3c(S(=O)(=O)O)cc4ccc(NCCS(=O)(=O)O)cc4c3O)c3cc(S(=O)(=O)O)ccc23)c1` [Compound 13], in data set [1] (Table 6), the “HD max in water” value was 575 nm. Besides, the “Density loss in %” value in data set [3] (Table 6) was found to be 4%.
Regarding `O=C(O)CCC(NC(=O)c1ccc(N=Nc2ccc(N=Nc3c(S(=O)(=O)O)cc4ccc(NCCS(=O)(=O)O)cc4c3O)c3cc(S(=O)(=O)O)ccc23)cc1)C(=O)O` (stereo not drawn) [Compound 14], in data set [1] (Table 6), the “HD max in water” value came to 576 nm. Besides, in data set [2] (Table 6), the “L*a*b*-value: L*” value is 19.5, the “L*a*b*-value: a*” value amounted to 7.5 and the “L*a*b*-value: b*” value is listed as 2.4. In addition, the “Density loss in %” value in data set [3] (Table 6) is 2%.
Turning to `O=C(O)c1ccc(N=Nc2ccc(N=Nc3c(S(=O)(=O)O)cc4ccc(NCCS(=O)(=O)O)cc4c3O)c3cc(S(=O)(=O)O)ccc23)cc1Cl` [Compound 15], the “HD max in water” value in data set [1] (Table 6) worked out at 590 nm. Also, in data set [2] (Table 6), the “L*a*b*-value: L*” value worked out at 4.7, the “L*a*b*-value: a*” value was 4.5 and the “L*a*b*-value: b*” value is recorded as -1.7. For the same compound, in data set [2], the “neutral black (color co-ordinates)” value is on record as “neutral blacks”. Further, the light fastness entry in data set [3] is on record as “excellent light fastness”. Moreover, the “Density loss in %” value in data set [3] (Table 6) came to 8%.
As for `O=C(O)c1cc(N=Nc2ccc(N=Nc3c(S(=O)(=O)O)cc4ccc(NCCS(=O)(=O)O)cc4c3O)c3ccc(S(=O)(=O)O)cc23)cc(C(=O)O)c1` [Compound 17], the “HD max in water” value in data set [1] (Table 6) is given as 568 nm. Besides, in data set [2] (Table 6), the “L*a*b*-value: L*” value is 5.7, the “L*a*b*-value: a*” value stood at 2.6 and the “L*a*b*-value: b*” value came out at 2.3. The “Density loss in %” value in data set [3] (Table 6) amounted to 2%.
In the case of `O=S(=O)(O)CCNc1ccc2cc(S(=O)(=O)O)c(N=Nc3ccc(N=Nc4cc(Cl)c(S(=O)(=O)O)cc4Cl)c4ccc(S(=O)(=O)O)cc34)c(O)c2c1` [Compound 18], the “HD max in water” value in data set [1] (Table 6) amounted to 553 nm. In data set [2] (Table 6), the “L*a*b*-value: L*” value is 3.5, the “L*a*b*-value: a*” value was 4.4 and the “L*a*b*-value: b*” value is 0.3. Also, in data set [2], the “neutral black (color co-ordinates)” value is reported as “neutral blacks”. For the same compound, in data set [3], the light fastness entry is on record as “excellent light fastness”. In data set [3] (Table 6), the “Density loss in %” value is on record as 5%.
In the case of `O=S(=O)(O)CCNc1ccc2cc(S(=O)(=O)O)c(N=Nc3ccc(N=Nc4cc(S(=O)(=O)O)c5cccc(S(=O)(=O)O)c5c4)c4ccc(S(=O)(=O)O)cc34)c(O)c2c1` [Compound 19], the “HD max in water” value in data set [1] (Table 6) was 581 nm. Besides, the “Density loss in %” value in data set [3] (Table 6) is on record as 1%.
As for `O=S(=O)(O)CCNc1ccc2cc(S(=O)(=O)O)c(N=Nc3ccc(N=Nc4ccc5c(S(=O)(=O)O)cc(S(=O)(=O)O)cc5c4)c4ccc(S(=O)(=O)O)cc34)c(O)c2c1` [Compound 20], the “HD max in water” value in data set [1] (Table 6) came out at 582 nm. Also, in data set [2] (Table 6), the “L*a*b*-value: L*” value is 9.4, the “L*a*b*-value: a*” value is on record as 3.8 and the “L*a*b*-value: b*” value is reported as -3.6. Further, in data set [2], the “neutral black (color co-ordinates)” value is given as “neutral blacks”. Also, the light fastness result in data set [3] is “excellent light fastness”. The “Density loss in %” value in data set [3] (Table 6) is listed as 3%.
As for `Nc1ccc2cc(S(=O)(=O)O)c(N=Nc3ccc(N=Nc4cccc(C(=O)O)c4)c4ccc(S(=O)(=O)O)cc34)c(O)c2c1` [Compound 23, reference compound], in data set [1] (state of the art dyes, Table 7), the “HD max in water” value turned out to be 570 nm. For the same compound, the “Density loss in %” value in data set [3] (state of the art dyes, Table 7) was determined as 2%.
For `Nc1ccc2cc(S(=O)(=O)O)c(N=Nc3ccc(N=Nc4cc(C(=O)O)cc(C(=O)O)c4)c4cc(S(=O)(=O)O)ccc34)c(O)c2c1` [Compound 25, reference compound], the “HD max in water” value in data set [1] (state of the art dyes, Table 7) was determined as 556 nm. Moreover, in data set [2] (state of the art dyes, Table 7), the “L*a*b*-value: L*” value was determined as 10.6, the “L*a*b*-value: a*” value is given as 11.7 and the “L*a*b*-value: b*” value was -0.6. The “Density loss in %” value in data set [3] (state of the art dyes, Table 7) is listed as 2%.
Take `O=C(O)CCNc1ccc2cc(S(=O)(=O)O)c(N=Nc3ccc(N=Nc4ccc(C(=O)O)cc4)c4ccc(S(=O)(=O)O)cc34)c(O)c2c1` [Compound 27, reference compound]: the “HD max in water” value in data set [1] (state of the art dyes, Table 7) is recorded as 564 nm. Besides, in data set [2] (state of the art dyes, Table 7), the “L*a*b*-value: L*” value is 23.7, the “L*a*b*-value: a*” value was 15.1 and the “L*a*b*-value: b*” value is reported as -16.6. Besides, in data set [3] (state of the art dyes, Table 7), the “Density loss in %” value came to 12%.
Turning to `Nc1ccc2cc(S(=O)(=O)O)cc(O)c2c1N=Nc1ccc(N=Nc2ccc(O)c(C(=O)O)c2)c2ccc(S(=O)(=O)O)cc12` [Compound 28, reference compound], in data set [2] (state of the art dyes, Table 7), the “L*a*b*-value: L*” value was found to be 18.8, the “L*a*b*-value: a*” value was 18.1 and the “L*a*b*-value: b*” value is recorded as -4.1.
